Data published in US6472348B1, “Pyridone derivatives and herbicides” (Kumiai Chemical Industry Co., Ltd., priority 1996, dated 2002).

Legend:
Format in all cases: in vivo
barnyardgrass (Ec) [1] = experiment: Test Example 1: herbicidal effects by paddy field soil treatment; settings: 100 g of the active ingredient per 10 ares, 21st day after the application, index 0-5 of Table 47;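 further: grade of growth control; 5 = at least 90%; 4 = 70 to 90%; 3 = 50 to 70%; 2 = 30 to 50%; 1 = 10 to 30%; 0 = under 10%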
Experimental: (§1) (Test on Herbicidal Effects by Paddy Field Soil Treatment)
(§2) In a plastic pot (surface area: 100 cm^2) filled with paddy field soil, barnyardgrass (Ec), monochoria (Mo) and bulrush (Sc) were sown after puddling and leveling, and flooded to a water depth of 3 cm. […] The dose was 100 g of the active ingredient per 10 ares. The plants were then cultured in a green house, and the evaluation of the herbicidal effects was conducted on the 21st day after the application in accordance with the standards as identified in Table 47.

bulrush (Sc) = experiment: as above; settings: 100 g of the active ingredient per 10 ares, 21st day after the application, index 0-5 of Table 47;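 further: grade of growth control; 5 = at least 90%; 4 = 70 to 90%; 3 = 50 to 70%; 2 = 30 to 50%; 1 = 10 to 30%; 0 = under 10%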
Experimental: as §1, §2

monochoria (Mo) = experiment: as above; settings: 100 g of the active ingredient per 10 ares, 21st day after the application, index 0-5 of Table 47;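 further: grade of growth control; 5 = at least 90%; 4 = 70 to 90%; 3 = 50 to 70%; 2 = 30 to 50%; 1 = 10 to 30%; 0 = under 10%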
Experimental: as §1, §2

Digitaria ciliaris (Di) = experiment: Test Example 2: herbicidal effects by upland field soil treatment; settings: 100 g of the active ingredient per 10 ares;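 further: grade of growth control; 5 = at least 90%; 4 = 70 to 90%; 3 = 50 to 70%; 2 = 30 to 50%; 1 = 10 to 30%; 0 = under 10%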
Text: (§3) (Test on Herbicidal Effects by Upland Field Soil Treatment)

barnyardgrass (Ec) [2] = experiment: as above; settings: 100 g of the active ingredient per 10 ares
Text: as §3

[3] = system: common lambsquarters (Ch); experiment: as above; settings: 100 g of the active ingredient per 10 ares
Text: as §3

pale smartweed (Po) [4] = experiment: as above; settings: 100 g of the active ingredient per 10 ares
Text: as §3

rice flatsedge (Ci) [5] = experiment: as above; settings: 100 g of the active ingredient per 10 ares
Text: as §3

slender amaranth (Am) [6] = experiment: as above; settings: 100 g of the active ingredient per 10 ares
Text: as §3

Diaitaria ciliaris (Di) = experiment: Test Example 3: herbicidal effects by upland field foliage treatment; design: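 grade of growth control; 5 = at least 90%; 4 = 70 to 90%; 3 = 50 to 70%; 2 = 30 to 50%; 1 = 10 to 30%; 0 = under 10%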; settings: 100 g of the active ingredient per 10 ares, evaluated on the 14th day after treatment
Experimental: (§4) (Test on Herbicidal Effects by Upland Field Foliage Treatment)
(§5) In a plastic pot (surface area: 120 cm^2) filled with sand, barnyardgrass (Ec), Diaitaria ciliaris (Di), pale smartweed (Po), slender amaranth (Am), common lambsquarters (Ch) and rice flatsedge (Ci) were sown and covered with soil and were cultured in a green house for 2 weeks. […] The plants were then cultured in the green house, and the evaluation of the herbicidal effects was conducted on the 14th day after the treatment in accordance with the standards as identified in Table 47. Symbol—represents “not tested”.

barnyardgrass (Ec) [7] = experiment: as above; design: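 grade of growth control; 5 = at least 90%; 4 = 70 to 90%; 3 = 50 to 70%; 2 = 30 to 50%; 1 = 10 to 30%; 0 = under 10%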; settings: 100 g of the active ingredient per 10 ares, evaluated on the 14th day after treatment
Experimental: as §4, §5

[8] = system: common lambsquarters (Ch); experiment: as above; design: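 grade of growth control; 5 = at least 90%; 4 = 70 to 90%; 3 = 50 to 70%; 2 = 30 to 50%; 1 = 10 to 30%; 0 = under 10%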; settings: 100 g of the active ingredient per 10 ares, evaluated on the 14th day after treatment
Experimental: as §4, §5

pale smartweed (Po) [9] = experiment: as above; design: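 grade of growth control; 5 = at least 90%; 4 = 70 to 90%; 3 = 50 to 70%; 2 = 30 to 50%; 1 = 10 to 30%; 0 = under 10%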; settings: 100 g of the active ingredient per 10 ares, evaluated on the 14th day after treatment
Experimental: as §4, §5

rice flatsedge (Ci) [10] = experiment: as above; design: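 grade of growth control; 5 = at least 90%; 4 = 70 to 90%; 3 = 50 to 70%; 2 = 30 to 50%; 1 = 10 to 30%; 0 = under 10%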; settings: 100 g of the active ingredient per 10 ares, evaluated on the 14th day after treatment
Experimental: as §4, §5

slender amaranth (Am) [11] = experiment: as above; design: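 grade of growth control; 5 = at least 90%; 4 = 70 to 90%; 3 = 50 to 70%; 2 = 30 to 50%; 1 = 10 to 30%; 0 = under 10%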; settings: 100 g of the active ingredient per 10 ares, evaluated on the 14th day after treatment
Experimental: as §4, §5

[12] = 21st day after the application, index 0-5 of Table 47
[13] = evaluated on the 21st day after application

Row | SMILES | Herbicidal effects Ec (barnyardgrass (Ec) [1]) | Herbicidal effects Sc (bulrush (Sc)) | Herbicidal effects Mo (monochoria (Mo)) | Herbicidal effects Di (Digitaria ciliaris (Di); [12]) | Herbicidal effects Ec (barnyardgrass (Ec) [2]; [12]) | Herbicidal effects Ch [3, 12] | Herbicidal effects Po (pale smartweed (Po) [4]; [12]) | Herbicidal effects Ci (rice flatsedge (Ci) [5]; [12]) | Herbicidal effects Am (slender amaranth (Am) [6]; [12]) | Herbicidal effects Di (Diaitaria ciliaris (Di)) | Herbicidal effects Ec (barnyardgrass (Ec) [7]) | Herbicidal effects Ch [8] | Herbicidal effects Po (pale smartweed (Po) [9]) | Herbicidal effects Ci (rice flatsedge (Ci) [10]) | Herbicidal effects Di (Digitaria ciliaris (Di); [13]) | Herbicidal effects Ec (barnyardgrass (Ec) [2]; [13]) | Herbicidal effects Ch [3, 13] | Herbicidal effects Po (pale smartweed (Po) [4]; [13]) | Herbicidal effects Ci (rice flatsedge (Ci) [5]; [13]) | Herbicidal effects Am (slender amaranth (Am) [6]; [13]) | also measured
1 | CCCC(Oc1cc(-c2ccc(C(F)(F)F)n(C)c2=O)c(F)cc1Cl)C(=O)OCC (racemic) [1-121] | 5 | 5 | 5 | 5 | 5 | 5 | 5 | 5 | 5 | 5 | 5 | 5 | 5 | 5 | – | – | – | – | – | – | Herbicidal effects Am (slender amaranth (Am) [11]): 5
2 | CCOC(=O)C(C)OC(=O)c1cc(-c2ccc(C(F)(F)F)n(C)c2=O)c(F)cc1Cl (racemic) [1-143] | 5 | 5 | 5 | 5 | 5 | 5 | 5 | 5 | 5 | 5 | 5 | 5 | 5 | 5 | – | – | – | – | – | – | Herbicidal effects Am (slender amaranth (Am) [11]): 5
3 | Cn1c(C(F)(F)F)ccc(-c2cc(Oc3nc(Cl)cs3)c(Cl)cc2F)c1=O [1-103] | 5 | 5 | 5 | 5 | 4 | 5 | 5 | 5 | 5 | – | – | – | – | – | – | – | – | – | – | – | –
4 | COc1cc(-c2ccc(C(F)(F)F)n(C)c2=O)ccc1Cl [1-108] | 5 | 5 | 5 | – | 5 | 5 | 5 | 5 | 5 | 5 | 5 | 5 | 5 | 5 | – | – | – | – | – | – | Herbicidal effects Am (slender amaranth (Am) [11]): 5
5 | C#CCSc1cc(-c2ccc(C(F)(F)F)n(C)c2=O)ccc1Cl [1-112] | 5 | 5 | 5 | 5 | 5 | 5 | 5 | 5 | 5 | – | – | – | – | – | – | – | – | – | – | – | –
6 | Cn1c(C(F)(F)F)ccc(-c2cc(Sc3ncccn3)c(Cl)cc2Cl)c1=O [1-131] | 5 | 5 | 5 | 5 | 5 | 5 | 5 | 5 | 5 | – | – | – | – | – | – | – | – | – | – | – | –
7 | Cn1c(C(F)(F)F)ccc(-c2ccc(Cl)c(Cl)c2)c1=O [Compound 1-185] | – | – | – | – | – | – | – | – | – | – | – | – | – | – | 5 | 5 | 5 | 4 | 5 | 5 | –
8 | Cn1c(C(F)(F)F)ccc(-c2cc(Cl)c(Cl)cc2Cl)c1=O [Compound 1-186] | 5 | 4 | 5 | – | – | – | – | – | – | – | – | – | – | – | 5 | 5 | 5 | 5 | 5 | 5 | –
9 | CNC(=O)COc1cc(-c2ccc(C(F)(F)F)n(C)c2=O)c(F)cc1Cl [Compound 1-209] | 5 | 5 | 5 | – | – | – | – | – | – | – | – | – | – | – | 4 | 4 | 5 | 5 | 5 | 5 | –
10 | CNS(=O)(=O)c1cc(-c2ccc(C(F)(F)F)n(C)c2=O)ccc1Cl [Compound 1-257] | 5 | 5 | 5 | – | – | – | – | – | – | – | – | – | – | – | 5 | 5 | 5 | 5 | 5 | 5 | –
